{"source": "patent US6548270B1", "about": "“DNA encoding human acid-sensing ion channel BNaC4 (ASIC4)” (Ortho-McNeil Pharmaceutical, Inc., priority 2000, dated 2003)", "origin": "cited, not measured here", "key": {"[1]": {"molecular_target": "T1, ASIC1A (Rattus norvegicus, UniProt P55926)", "T1 sequence (P55926 1-526)": "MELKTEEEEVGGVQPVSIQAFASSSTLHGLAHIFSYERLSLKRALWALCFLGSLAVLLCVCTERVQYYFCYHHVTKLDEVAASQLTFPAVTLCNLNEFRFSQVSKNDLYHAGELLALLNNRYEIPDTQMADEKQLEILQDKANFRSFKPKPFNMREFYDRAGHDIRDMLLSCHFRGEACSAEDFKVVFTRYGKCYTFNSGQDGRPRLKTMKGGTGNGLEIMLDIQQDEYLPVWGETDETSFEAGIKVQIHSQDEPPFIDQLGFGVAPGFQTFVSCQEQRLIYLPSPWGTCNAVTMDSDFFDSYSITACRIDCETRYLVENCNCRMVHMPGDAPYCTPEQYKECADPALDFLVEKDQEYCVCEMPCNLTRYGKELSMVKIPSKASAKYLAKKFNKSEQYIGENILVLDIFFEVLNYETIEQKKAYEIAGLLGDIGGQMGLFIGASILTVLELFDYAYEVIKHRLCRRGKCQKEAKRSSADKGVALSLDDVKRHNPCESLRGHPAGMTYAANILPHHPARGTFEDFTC", "conditions": "read-out: Amiloride sensitivity, KD; cited from earlier work"}, "[2]": {"molecular_target": "T2, Rat ASIC3 (Rattus norvegicus, UniProt O35240)", "T2 sequence (O35240 1-533)": "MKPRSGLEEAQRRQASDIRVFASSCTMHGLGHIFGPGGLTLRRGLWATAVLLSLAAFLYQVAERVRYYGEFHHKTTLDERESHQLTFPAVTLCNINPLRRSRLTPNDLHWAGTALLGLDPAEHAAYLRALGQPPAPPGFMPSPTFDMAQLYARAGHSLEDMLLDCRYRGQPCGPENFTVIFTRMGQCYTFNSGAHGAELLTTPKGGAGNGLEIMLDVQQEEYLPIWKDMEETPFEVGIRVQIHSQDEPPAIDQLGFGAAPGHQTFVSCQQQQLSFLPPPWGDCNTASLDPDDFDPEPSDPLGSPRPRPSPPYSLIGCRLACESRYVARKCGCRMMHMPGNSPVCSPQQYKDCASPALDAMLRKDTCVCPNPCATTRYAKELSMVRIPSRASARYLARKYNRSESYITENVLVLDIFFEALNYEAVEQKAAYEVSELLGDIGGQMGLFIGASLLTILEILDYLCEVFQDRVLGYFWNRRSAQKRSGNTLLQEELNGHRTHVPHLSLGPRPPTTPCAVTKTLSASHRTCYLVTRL", "conditions": "cited from earlier work"}}, "note": "pIC50, pKd: −log10 of the molar value."}
{"compound": "N=C(N)NC(=O)c1nc(Cl)c(N)nc1N", "note": "[amiloride]", "values": [{"measurement": "pKd", "setting": "[1]", "result": "~5.00"}, {"measurement": "pIC50", "setting": "[2]; rat ASIC3 fast component, read-out: Amiloride sensitivity, K0.5, fast component", "result": "~4.22"}, {"measurement": "effect of amiloride on slow component", "setting": "[2]; rat ASIC3 slow component", "result": "potentiated by amiloride (Waldmann"}]}
